What was measured:
[1] = target: T1, MDM2 (Homo sapiens, UniProt Q00987); experiment: Determining Kds of MDM2 binders by SPR; assay type: binding; conditions: unlabeled macrocycles, single cycle kinetics
Experimental: FIG. 30. Binding of macrocycles to MDM2 measured by SPR. a, Single-cycle SPR sensorgrams for fluorescein-labeled macrocycles, positive control nutlin-3a (not fluorescein labeled), and negative controls (thrombin inhibitors; not fluorescein labeled). RU, response unit. b, Single-cycle SPR sensorgrams for macrocycles M6, M7, M8 and M10 (not fluorescein-labeled), performed in triplicate.
Experiments were performed using a GE Healthcare Biacore 8K instrument. MDM2 (10 μg/mL) was dissolved in 10 mM MES buffer (pH 6.0) and immobilized on three channels of a CM5 series S chip (Cytiva, 29104988) using EDC/NHS amine coupling conditions in running buffer (10 mM PBS pH 7.4, 150 mM NaCl, 3 mM KCI, and 0.005% v/v Tween-20). Typical immobilization level was 6,000 to 7,000 resonance units (RUs). The reference cell was treated the same way without MDM2. For the measurement of binding kinetics and dissociation constants, five serial dilutions (3-fold) of macrocycles plus a DMSO blank were prepared in running buffer (10 mM PBS PH 7.4, 150 mM NaCl, 3 mM KCl, and 0.005% v/v Tween-20, and 0.5% v/v DMSO) and analyzed in single cycle kinetics mode with contact and dissociation times of 120 seconds and 60 seconds, respectively.

[2] = target: T1, MDM2; experiment: MDM2 fluorescence polarization competition assay (displacement of FP53 peptide probe); assay type: binding; conditions: purified macrocycles, 1.2 μM MDM2; read-out: IC50 displacement of fluorescent peptide probe from MDM2
Experimental: The library was screened by dispensing to the reactions in the 384-mictrowell plates the target protein MDM2 and a reporter peptide to measure binding of the macrocycles.
One fluorescence anisotropy reading was taken with a Tecan Infinite F200 Pro fluorescence plate reader (excitation at 485 nm, emission at 535 nm) at 25° C.The percentage of probe displacement was calculated using to the following formula,
Volumes of 5 μL of purified macrocycles (20 mM in DMSO) were serial diluted two-fold in 100% DMSO in a low dead-volume ECHO source plate. Using acoustic droplet transfer, 150 nl of each dilution was transferred to a 384 well low volume polystyrene plate (Nunc, 264705). […] Fluorescence anisotropy was measured as described above. The percentage of bound inhibitor was calculated using the following equation
where N is the average anisotropy of the DMSO controls, X is the anisotropy value obtained for each well, and P is the average anisotropy of the unbound probe. The ICsos were determined by plotting the percent of bound inhibitor against the logarithm of the corresponding macrocycle concentration, and the curves were fitted in GraphPad Prism 6 as described above.

[3] = target: T1, MDM2; experiment: Competition binding experiment of fluorescein-labeled M10 with nutlin-3a on MDM2; conditions: fluorescence polarization
Experimental: We subsequently performed a third cycle of library synthesis and screening, where we acylated the nine most promising scaffolds of the previous screens with 15 additional carboxylic acids, which were mostly cinnamic acid derivatives with larger substituents. We subsequently identified M10, which is a macrocycle based on the original scaffold and acylated with acid 120 that displaced the fluorescent probe used, F-M8, to 84% from MDM2 at 750 nM, and more efficiently than the parent compounds, M8 and M9 (FIG. 18c). […] With the fluorescein conjugate, we also performed a competition experiment with nutlin-3a that binds to a defined hydrophobic pocked of MDM2 (B. Anil et al., Acta Crystallogr. Sect. D Biol. Crystallogr. 2013, 69, 1358-1366) and is a precursor of nutlin-based clinical candidates.

[4] = target: T2, thrombin (Homo sapiens, UniProt P00734); experiment: Thrombin inhibition screen of the 96-member disulfide-cyclized peptide library and Ki of purified hit (Example 2); assay type: biochemical
T2 construct: two polypeptide chains of 36 (light chain) and 259 amino acid residues (heavy chain); purchased Haematologic Technologies HCT-0020
Experimental: FIG. 7. Library design, peptide recovery quantification by absorption, and thrombin inhibition of the cyclic peptide library. (a) Design of library comprising 96 different peptides and structures of unnatural amino acids used in library. (b) Scatter plot of cyclic peptide concentrations (mM in DMSO) for the 96 synthesized cyclic peptides quantified by absorption at 280 nm. […] (c) Thrombin inhibition measured at an average cyclic peptide concentration of 11 μM. The peptides are ordered according to their thrombin inhibition activity in the first screen (black dots; highest to lowest activity). Green dots indicate thrombin inhibition for the same cyclic peptides measured in a second screen using the same conditions.
Despite the relatively small number of only 96 cyclic peptides and thus small chance of finding an active compounds, we performed a screen against thrombin, an important target for developing anticoagulation therapeutics, using a compound concentration of around 10 μM. […] Biological screens are typically performed at compound concentrations of around 10 μM, which means that the 100% DMSO and 150 mM DIPEA in the around 10 mM peptide stocks get 1000-fold diluted to reach concentrations of 0.1% and 150 μM, respectively, that unlikely affect most biological assays.

[5] = target: T2, thrombin; experiment: Substrate KM for protease screen, thrombin; assay type: biochemical
Experimental: Crude macrocyclic libraries (4 mM DMSO stocks in 384-well LDV plates were transferred into 1536-well microtiter OptiPlates via ADE. Applied buffered solutions were prepared by filtration through PTFE syringe filters (0.22 μm) and assays were initiated by addition of protease (4.41 μl/well) in appropriate buffer (see list below) supplemented with bovine serum albumin (BSA; 0.1% w/v) and dispensed using a CERTUS automated liquid handler. Plates were incubated for 10 min at ambient temperature before fluorogenic substrate in appropriate buffer (4.5 μl) was added using a CERTUS automated liquid handler. Plates were centrifugated (800 g, 2 min) and fluorescence intensity was measured using a PHERAstar plate reader (excitation 384 nm, emission 440 nm) in time increments of 150 s over 15 min. Slopes of fluorescence increase (m) were calculated with Microsoft Excel (vers. 16.56). Negative controls were prepared without macrocycle. An average of 12 negative controls was used to calculate residual activities using Equation I below: […]
where [S]0 is the initial substrate concentration and KM is the Michaelis-Menten constant^12 for the enzyme and substrate.

T1 sequence (Q00987 whole entry): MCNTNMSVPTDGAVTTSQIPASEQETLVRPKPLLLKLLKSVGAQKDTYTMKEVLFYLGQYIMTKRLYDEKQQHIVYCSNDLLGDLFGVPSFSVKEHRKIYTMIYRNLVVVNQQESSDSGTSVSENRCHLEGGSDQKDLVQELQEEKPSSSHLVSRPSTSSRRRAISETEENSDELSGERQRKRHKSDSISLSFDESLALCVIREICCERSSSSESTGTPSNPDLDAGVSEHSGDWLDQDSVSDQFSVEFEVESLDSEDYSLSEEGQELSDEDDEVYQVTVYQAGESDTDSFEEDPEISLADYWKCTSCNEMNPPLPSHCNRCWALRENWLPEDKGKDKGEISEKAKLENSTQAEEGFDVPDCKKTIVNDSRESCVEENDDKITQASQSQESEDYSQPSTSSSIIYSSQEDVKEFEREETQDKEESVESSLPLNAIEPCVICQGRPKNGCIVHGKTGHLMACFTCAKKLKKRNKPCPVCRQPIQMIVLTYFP

| Compound | Kd [1] [nM] | IC50 [2] [nM] | further results |
| --- | --- | --- | --- |
| nutlin-3a | – | – | competition with fluorescein conjugate of M10 for MDM2 [3]: did not compete |
| Mpa-Tyr-II-Pro-Mea | – | – | Ki ([4]; HPLC-purified disulfide cyclized peptide): 13000 ± 1000 nM; reduction of thrombin activity ([4]; crude cyclic peptide, compound concentration of around 10 μM): 52% |
| Cc1cc(=O)oc2cc(NC(=O)[C@H](CCCNC(=N)N)NC(=O)CNC(=O)CNC(=O)OCc3ccccc3)ccc12 [Cbz-G-G-R-AMC] | – | – | Km [5]: 305 ± 46 µM |

Continued, in another order:

| Kd [1] [nM] | IC50 [2] [nM] | Compound | further results |
| --- | --- | --- | --- |
| 550 ± 190 | ~1000 | O=C(NC[C@@H]1NC(=O)[C@H]2CCCN(C2)C(=O)CCSSCCNC(=O)[C@H](Cc2c[nH]c3ccccc23)NC1=O)c1ccc(Cl)cc1 [M7] | – |
| 600 ± 300 | ~1000 | O=C(NC[C@@H]1NC(=O)[C@H]2CCCN(C2)C(=O)CCSSCCNC(=O)[C@H](Cc2c[nH]c3ccccc23)NC1=O)c1ccc(Cl)s1 [M6] | – |
| 169 ± 93 | ~1000 | O=C(/C=C/c1ccccc1)NC[C@@H]1NC(=O)[C@H]2CCCN(C2)C(=O)CCSSCCNC(=O)[C@H](Cc2c[nH]c3ccccc23)NC1=O [M8] | – |

— patent US20240279845A1, “METHOD FOR PREPARING A LIBRARY OF PEPTIDES OR A PEPTIDE” (ECOLE POLYTECHNIQUE FEDERALE DE LAUSANNE (EPFL), priority 2021, published 2024)
